Each structure is given as a SMILES string. Counter-ions that a name gives are not always drawn.

The nature of the series: Solubility of various Prasugrel acid addition salts, determined according to European Pharmacopoeia 6.0, 5.11 (2008). In kind it is physicochemical. The source says: As bioavailability depends, among others, on solubility, an optimal active substance for oral application should show a high solubility in a broad pH-range. […] Table 2: Solubility of various Prasugrel acid addition salts

On to `CC(=O)Oc1cc2c(s1)CCN(C(C(=O)C1CC1)c1ccccc1F)C2` (stereo not drawn) [Prasugrel hydrochloride], for which the Solubility entry (Acetate buffer pH 4.5) was “insoluble”, the Solubility entry (Hydrochloric acid medium pH 1.2) was “sparingly soluble” and the Solubility entry (water) is recorded as “insoluble”.

The record behind these values is EP2112155B1, “Hydrogensulfate salt of 2-acetoxy-5-(a-cyclopropylcarbonyl-2-fluorobenzyl)-4,5,6,7-tetrahydrothieno[3,2-c]pyridine and its preparation” (Sandoz AG, priority 2008, dated 2009).
